Here are results for twelve compounds from patent publication EP1321467A2, “High affinity inhibitors for target validation and uses thereof” (Princeton University, priority 1999, dated 2000).

Entries after “also recorded” stand apart in the source; their conditions may differ. Read-outs that look alike come from different tables or passages of the source.

Experiment [1] concerns the target T1, I338G v-Src (Rous sarcoma virus subgroup A, UniProt P00524, DEL77-225/I338G).
T1 construct: catalytic domain of the target kinase, I338G v-Src, which was expressed in bacteria and purified as a glutathione-S-transferase (GST) fusion protein; made in house; host or cells: E. coli DH5a, pGEX-KT
Put plainly: biochemical. In kind it is biochemical.

Experiment [2] relates to B cell receptor (BCR) mediated phosphorylation cascade. Nature of the experiment: Murine B cell assay, phosphotyrosine blot. In kind it is cell-based. Set-up: dose or concentration left out as unconfirmed. The conditions noted are these: 30 minutes, anti-IgM stimulation. Here is the method: Murine B Cell Assay: Splenic lymphocytes were isolated from 6-20 week old Balb/c or C57/B6 mice. The cells were washed out of the spleen into RPMI media containing 1 mg/mL DNase in and the red blood cells were lysed in 17 mM tris-ammonium chloride, pH 7.2, Approximately 4x10^6 cells were incubated at 37°C for 30 minutes with […] of 3g or 2 in 1.1% DMSO. B cell stimulation was initiated by the addition of 2 mg of goat anti-mouse IgM (Jackson Immuno Research, cat# 115-005-075) and subsequent incubation for 5 minutes at 37(C. The cells were isolated by centrifugation (13,000 rpm, 2 min) and lysed (lysis buffer: 1% Triton X-100, 50 mM tris pH 7.4, 2 mM EDTA, 150 mM NaCl, […] PMSF, 2 mM sodium orthovanadate, 10 mg/mL leupeptin, 10 mg/mL apoprotin). The cellular debris was then pelleted at 13,000 rpm for 15 min. Cellular proteins were separated by 10% polyacrylamide gel electrophoresis and transferred to a nitrocellulose membrane by Western blotting. Phosphotyrosine containing proteins were visualized by immunoblotting with anti-phosphotyrosine antibody (Upstate Biotechnology, Inc.).

Experiment [3] relates to I338G v-Src. Put plainly: biochemical. The class given is biochemical. To be noted: for increase in affinity over previously optimized inhibitors of wild type kinases: versus PP1 on Fyn.
The next experiment has as its target T2, WT v-Src (Rous sarcoma virus subgroup A, UniProt P00524, DEL77-225).
T2 construct: glutathione-S-transferase fusion proteins of wild type v-Src catalytic domain, I338G v-Src SH1, and WT Fyn into the pGEX-KT plasmid; GST (N); made in house; host or cells: E. coli DH5a, pGEX-KT
Nature of the experiment: biochemical. The class given is biochemical. Also noted: in vitro inhibition of WT v-Src / inhibition of WT v-Src: dose or concentration left out as unconfirmed.

The subject of experiment [4] is I338G v-Src transformed NIH3T3 cells. Put plainly: Inhibition of v-Src in NIH3T3 fibroblasts, phosphotyrosine blot. The class given is cell-based, murine.
In experiment [5] the test system is WT v-Src transformed NIH3T3 cells. The description is as above. The class given is cell-based, murine.
Experiment [6] has as its system I338G v-Src transformed NIH3T3 fibroblasts. Nature of the experiment: Microscopy of cell morphology and polymerized actin. In kind it is cell-based, murine.
Experiment [7] deals with WT v-Src transformed NIH3T3 fibroblasts. The description is as above. The class given is cell-based, murine. The conditions noted are these: 250 nM 6a, 16 hours.
The next experiment relates to Jurkat cells. Put plainly: Tyrosine phosphorylation in pervanadate treated Jurkat cells. In kind it is cell-based, human. To be noted: 500nM 6a, 30 min, then 0.5 mM pervanadate.
In experiment [8] the test system is wild-type protein tyrosine kinase. Put plainly: Screening of nucleotide analogs in murine lymphocyte lysate, anti-phosphotyrosine immunoblot. In kind it is biochemical. To be noted: 100 uM nucleotide triphosphate, 37°C, 5 min. (In general: In western blotting, separated proteins are transferred to a membrane and probed.)
For another experiment, the target named is T3, PKCd (Homo sapiens, UniProt Q05655).
T3 construct: 6-His; made in house
Nature of the experiment: In vitro kinase inhibition assay. In kind it is biochemical. The conditions noted are these: concentrations up to 300 mM.

Another experiment has as its target T4, PKA (Homo sapiens, UniProt P17612).
T4 construct: purchased Pierce
Put plainly: In vitro kinase inhibition assay. The class given is biochemical. The conditions noted are these: concentrations up to 300 mM. The source says: (§1) PKA was purchased (Pierce) and used without further purification.

A further experiment has as its target T5, T339G Fyn (Homo sapiens, UniProt P06241, T342G).
T5 construct: GST (N); made in house; host or cells: E. coli DH5a, pGEX-KT
Nature of the experiment: In vitro kinase inhibition assay. In kind it is biochemical.
Excerpt: as §1

The next experiment has as its target T6, WT Fyn (Homo sapiens, UniProt P06241).
T6 construct: GST (N); made in house; host or cells: E. coli DH5a, pGEX-KT
Put plainly: In vitro kinase inhibition assay. The class given is biochemical. Set-up: in vitro inhibition of Fyn: dose or concentration left out as unconfirmed. To be noted: for IC50: Table 3.

T6 sequence (P06241 1-534 isoform P06241-2): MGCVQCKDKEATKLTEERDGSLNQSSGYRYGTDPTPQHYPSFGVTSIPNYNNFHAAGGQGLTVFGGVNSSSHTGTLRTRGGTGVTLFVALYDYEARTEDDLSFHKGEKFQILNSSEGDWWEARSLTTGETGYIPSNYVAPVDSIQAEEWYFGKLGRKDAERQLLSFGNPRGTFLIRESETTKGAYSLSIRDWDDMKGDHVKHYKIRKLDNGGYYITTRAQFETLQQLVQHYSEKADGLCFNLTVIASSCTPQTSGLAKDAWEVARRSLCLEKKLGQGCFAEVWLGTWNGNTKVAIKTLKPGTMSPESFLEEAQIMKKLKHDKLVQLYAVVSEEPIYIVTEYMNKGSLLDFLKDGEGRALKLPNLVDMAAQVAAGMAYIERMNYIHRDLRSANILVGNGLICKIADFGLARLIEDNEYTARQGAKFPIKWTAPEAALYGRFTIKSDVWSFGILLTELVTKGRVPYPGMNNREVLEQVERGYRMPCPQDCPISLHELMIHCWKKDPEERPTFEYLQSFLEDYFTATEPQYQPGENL
T5 sequence (P06241 1-534 isoform P06241-2 T339G): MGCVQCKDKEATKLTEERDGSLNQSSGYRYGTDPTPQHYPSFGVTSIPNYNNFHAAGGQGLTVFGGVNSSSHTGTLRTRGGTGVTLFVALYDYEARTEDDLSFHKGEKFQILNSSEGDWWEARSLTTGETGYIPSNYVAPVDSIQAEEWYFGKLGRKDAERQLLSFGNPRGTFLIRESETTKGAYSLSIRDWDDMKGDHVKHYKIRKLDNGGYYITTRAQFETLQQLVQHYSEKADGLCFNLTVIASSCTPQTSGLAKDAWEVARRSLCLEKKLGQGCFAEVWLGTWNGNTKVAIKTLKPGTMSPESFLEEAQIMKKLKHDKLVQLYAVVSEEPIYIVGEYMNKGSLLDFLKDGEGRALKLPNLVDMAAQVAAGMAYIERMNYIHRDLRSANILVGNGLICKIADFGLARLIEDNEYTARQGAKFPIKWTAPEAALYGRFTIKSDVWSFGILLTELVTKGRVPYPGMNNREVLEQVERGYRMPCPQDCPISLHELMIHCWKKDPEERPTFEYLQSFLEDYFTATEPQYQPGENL
T3 sequence (Q05655 whole entry, species assumed): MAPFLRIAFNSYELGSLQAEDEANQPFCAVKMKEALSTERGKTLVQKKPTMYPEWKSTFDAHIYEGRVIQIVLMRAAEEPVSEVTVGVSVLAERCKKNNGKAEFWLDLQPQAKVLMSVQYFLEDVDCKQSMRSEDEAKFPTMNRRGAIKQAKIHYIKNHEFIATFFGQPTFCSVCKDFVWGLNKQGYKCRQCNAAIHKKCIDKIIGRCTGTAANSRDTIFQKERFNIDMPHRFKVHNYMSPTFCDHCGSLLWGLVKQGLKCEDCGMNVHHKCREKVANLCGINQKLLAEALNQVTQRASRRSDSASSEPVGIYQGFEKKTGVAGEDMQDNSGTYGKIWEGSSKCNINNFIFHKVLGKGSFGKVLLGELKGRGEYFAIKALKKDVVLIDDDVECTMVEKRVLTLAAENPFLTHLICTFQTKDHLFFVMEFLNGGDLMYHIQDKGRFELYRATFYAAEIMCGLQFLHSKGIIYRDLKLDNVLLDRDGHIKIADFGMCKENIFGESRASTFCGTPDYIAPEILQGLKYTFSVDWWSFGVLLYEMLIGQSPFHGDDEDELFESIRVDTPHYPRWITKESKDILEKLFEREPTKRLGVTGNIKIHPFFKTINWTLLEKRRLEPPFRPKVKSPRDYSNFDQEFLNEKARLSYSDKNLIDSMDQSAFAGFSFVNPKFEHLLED

With `CC(C)(C)n1nc(-c2ccccc2)c2c(N)ncnc21` [2 (Figure 14), 4-Amino-1-tert-butyl-3-phenylpyrazolo [3,4-d] pyrimidine], on I338G v-Src [1], the IC50 is 430 nM. Besides, in experiment [2], the “phosphotyrosine pattern of B cell stimulation” value is “significant reduction in tyrosine phosphorylation”.

Take `CC(C)(C)n1nc(-c2cccc3ccccc23)c2c(N)ncnc21` [4-amino-1-(tert-butyl)-3-(1'-naphthyl)pyrazolo[3,4-d]pyrimidine]: the IC50 on I338G v-Src [1] is 1.5 nM; against WT v-Src, 1 µM. Besides, the “increase in affinity over previously optimized inhibitors of wild type kinases” value in the experiment on I338G v-Src [3] was 20 fold. Also, the tyrosine phosphorylation entry is “strongly diminishes tyrosine phosphorylation in a concentration dependent manner within minutes” in experiment [4] (varying concentrations of 6a, 30 min) and “no detectable decrease in phosphorylation” in the experiment with Jurkat cells. For the same compound, the phosphotyrosine signal result in experiment [5] (500nM 6a) is “no loss of phosphotyrosine signal”. Moreover, the “actin fibers and morphology” value in experiment [6] (250 nM 6a, 16 hours) was “clear actin fibers and appear indistinguishable from normal NIH3T3 fibroblasts; also recorded: selectively acquire a flattened morphology and selectively regain actin stress”; in experiment [7], “indistinguishable from untreated wild type cells; also recorded: no effect on this non-mutant cell line”.

Turning to `CC(C)(C)n1nc(-c2ccccc2)c2c(N)ncnc21` [Compound 1], in [8], the “level of protein tyrosine phosphorylation” value is on record as “some ability to serve as cellular protein tyrosine kinase substrates”.

As for `CC(C)(C)c1ccc(C(=O)Nc2ncnc3c2c(-c2ccccc2)nn3C(C)(C)C)cc1` [Compound 3g, 4-(p-tert-butyl)benzamido-1-tert-butyl-3-phenylpyrazolo[3,4-d]pyrimidine], the IC50 was 430 nM at I338G v-Src [1] (read-out: IC50); 430 nM at I338G v-Src [1] (text b249, read-out: IC50); about 50 µM in experiment [4] (Mus musculus, NIH3T3, read-out: IC50 for p36 phosphotyrosine signal). Further, in the experiment with I338G v-Src [3] (in vitro), the “inhibits the engineered v-Src more effectively than WT Fyn” value is “over 700 times”. Further, the “selectivity for I338G v-Src with respect to wild type v-Src” value (shortened to “selectivity … to wild type v-Src”) in the experiment on I338G v-Src [3] (in vitro) is given as at least 1000 fold. Further, the “inhibition of WT v-Src” value against WT v-Src (limit of solubility) is “no inhibition”. For the same compound, the “inhibition of PKCd” value at PKCd is recorded as “not detectably inhibited”. In addition, the “inhibition of PKA” value at PKA was “not detectably inhibited”. For the same compound, the “selectivity for T339G Fyn over WT Fyn” value on T339G Fyn is recorded as “greater than 300 fold”. The “phosphotyrosine pattern of B cell stimulation” value in [2] is recorded as “no effect on the phosphotyrosine pattern of B cell stimulation”. Moreover, the “cellular IC50 relative to the in vitro value” in [4] is “roughly 100 times”. Further, the tyrosine phosphorylation entry in experiment [4] (3g, 12 hours) is reported as “dramatic diminution in the tyrosine phosphorylation of the putative v-Src substrate, p36; also recorded: blocks p36 phosphorylation in I338G v-Src”; in experiment [5] (3g, 12 hours) it was “no loss of tyrosine phosphorylation”. In addition, in [6] (3g, 48 hours), the “cell morphology and polymerized actin” value is “dramatic changes in cell morphology which are consistent with the reversal of transformation; also recorded: defined polymerized actin strings, strongly resembling the actin formations of non-transformed NIH3T3 fibroblasts; also recorded: selectively acquire a flattened morphology and selectively regain Actin stress fibers”.

Regarding `CC(C)(C)n1nc(-c2ccc3ccccc3c2)c2c(N)ncnc21` [Compound 6b, 4-amino-1-(tert-butyl)-3-(2'-naphthyl)pyrazolo[3,4-d]pyrimidine], in the experiment with I338G v-Src [3], the “increase in affinity over previously optimized inhibitors of wild type kinases” value turned out to be 20 fold.

In the case of `CC(C)(C)n1nc(-c2cccc(OCc3ccccc3)c2)c2c(N)ncnc21` [Compound 6d, 4-amino-1-(tert-butyl)-3-(m-benzyloxyphenyl)pyrazolo[3,4-d]pyrimidine], the “selectivity for I338G v-Src with respect to wild type Fyn” value in the experiment with I338G v-Src [3] (in vitro) was over 100 fold.

For `CC(C)(C)n1nc(-c2cccc(OCc3c(Cl)cccc3Cl)c2)c2c(N)ncnc21` [Compound 6e, 4-amino-1-(tert-butyl)-3-(m-(2',6'-dichloro)benzyloxyphenyl) pyrazolo[3,4-d]pyrimidine], the IC50 amounted to 130 nM on I338G v-Src [1] (Table 3, read-out: 1338G v-Src) and 300 µM at WT v-Src (Table 3, read-out: vSrc).

As to `CC(C)(C)n1nc(Cc2ccc3c(c2)OCO3)c2c(N)ncnc21` [Compound 6f, 4-amino-1-(tert-butyl)-3-piperonylpyrazolo[3,4-d]pyrimidine], the “selectivity … to wild type v-Src” value in the experiment with I338G v-Src [3] (in vitro) is on record as about 120 fold.

As for `CC(C)(C)c1ccc(-c2nn(C(C)(C)C)c3ncnc(N)c23)cc1` [Compound 6g, 4-amino-1-(tert-butyl)-3-(p-tert-butylphenyl)pyrazolo[3,4 d]pyrimidine], the IC50 at I338G v-Src [1] (Table 3, read-out: 1338G v-Src) is 99 nM; on WT v-Src (Table 3, read-out: vSrc), 65 µM.

With `CC(C)(C)n1nc(COc2cccc3ccccc23)c2c(N)ncnc21` [Compound 6i, 4-amino-1(tert-butyl)-3-(1'-naphthoxymethyl)pyrazolo[3,4-d]pyrimidine], the IC50 at I338G v-Src [1] (Table 3, read-out: 1338G v-Src) was 45 nM; on WT v-Src (Table 3, read-out: vSrc), over 300 µM; against WT Fyn, over 300 µM. The “selectivity … to wild type v-Src” value in the experiment on I338G v-Src [3] (in vitro) is listed as over 6500 fold.

Regarding `CC(C)(C)n1nc(Cc2ccc3ccccc3c2)c2c(N)ncnc21` [Compound 6j, 4-amino-1-(tert-butyl)-3-(2'-naphthylmethyl)pyrazolo[3,4-d]pyrimidine], the IC50 on I338G v-Src [1] (Table 3, read-out: 1338G v-Src) is 20 nM; on WT v-Src (Table 3, read-out: vSrc), over 300 µM; on WT Fyn, over 300 µM.

`OC[C@H]1O[C@@H](n2cnc3c(NOC4CCCC4)ncnc32)[C@H](O)[C@@H]1O` [N-6 cyclopentyloxyadenosine]: the “in vitro inhibition of WT v-Src” value at WT v-Src was “no detectable in vitro inhibition”. At WT Fyn, the “in vitro inhibition of Fyn” value is “no detectable in vitro inhibition”.
